The nature of the data set: Pharmacokinetics of compounds in rats (oral). In kind it is in vivo, SD rats. Particulars: male SD rats. Here is the method:
Male SD rats were purchased from Shanghai SIPPR-Bk Lab Animal Co., Ltd. Each test compound was administered orally (3 rats per group) once to SD rats for pharmacokinetic study. The test compounds were prepared on the day of administration. The test compounds were suspended in 5% DMSO+95% saline, and then vortexed for 2 min and ultrasonicated for 5 min to prepare the administration system. The animals were fasted for 10-14 h before oral administration, and the feeding was resumed 4 h after administration. After oral administration by gavage, pharmacokinetic samples were collected from SD rats through the jugular vein. The collection time points were: before administration, 15 min, 30 min, 1 h, 2 h, 4 h, 6 h, 8 h and 24 h after administration. Three whole blood samples were collected at each time point, with a collection volume of about 0.2 mL, and anticoagulated with sodium heparin. After blood samples were collected, they were immediately placed on ice and centrifuged to separate plasma within 1 hour (centrifugation conditions: 6800 rpm, 6 min, 2-8° C.). The collected plasma was stored in a −80° C. refrigerator before analysis.

Where [1] appears, read: male, SD, rat, plasma, po, 10 mg/kg, 10 mg/kg, read-out: AUC.
The mark [2] stands for this setting: male, SD, rat, plasma, po, 10 mg/kg, 10 mg/kg, read-out: Cmax.
Where [3] appears, read: male, SD, rat, plasma, po, 100 mg/kg, 100 mg/kg, read-out: AUC.
Where [4] appears, read: male, SD, rat, plasma, po, 100 mg/kg, 100 mg/kg, read-out: Cmax.

Like-named read-outs stand apart in the source and are kept apart here.

As to `Oc1cc(-c2ncc3c(N4CC5CCC(C4)N5)nc(OCC45CCCN4C(c4ccc6c(c4)OC(F)(F)O6)CC5)nc3c2F)c2ccccc2c1` (stereo not shown) [Example 132], the AUC – broadly, the area under the concentration-time curve, a measure of exposure – under setting [1] was 240 ng·h/mL. The Cmax (in general, the peak of the concentration-time curve) under setting [2] is 29 ng/mL.
Consider `Oc1cc(-c2ncc3c(N4CC5CCC(C4)N5)nc(OCC45CCCN4[C@@H](c4ccc(C(F)(F)F)c(Cl)c4)CC5)nc3c2F)c2c(F)c(F)ccc2c1` (mixture of isomers) [Example 215], for which the AUC under setting [3] was found to be 471 ng·h/mL. In addition, under setting [4], the Cmax was 128 ng/mL.
Where the note is “10 mg/kg”, `Oc1cc(-c2ncc3c(N4C[C@H]5CC[C@@H](C4)N5)nc(OCC45CCCN4C(c4ccc(C6=CCOCC6)cc4)CC5)nc3c2F)c2ccccc2c1` (stereo partly drawn) [Example 45, 4-(4-((1R,5S)-3,8-diazabicyclo[3.2.1]octan-3-yl)-2-((3-(4-(3,6-dihydro-2H-pyran-4-yl)phenyl)tetrahydro-1H-pyrrolidin-7a(5H)-yl)methoxy)-8-fluoropyrido[4,3-d]pyrimidin-7-yl)naphthalen-2-ol] had an exposure (AUC) of 94 ng·h/mL and a Cmax of 21 ng/mL.
`Nc1cc(F)c(C(F)(F)F)c(-c2ncc3c(N4CC5CCC(C4)N5)nc(OCC45CCCN4C(c4ccc6c(c4)OC(F)(F)O6)CC5)nc3c2F)c1` (stereo not shown) [Example 237]: the AUC under setting [3] came to 1510 ng·h/mL. For the same molecule, under setting [4], the Cmax was 362 ng/mL.
With `Oc1cc(-c2ncc3c(N4CC5CCC(C4)C5(F)F)nc(OC[C@@]45CCCN4C[C@H](F)C5)nc3c2F)c2c(F)c(F)ccc2c1` [Example 86], under setting [1], the AUC stood at 52 ng·h/mL. The Cmax under setting [2] came to 21 ng/mL.
As to `Oc1cc(-c2ncc3c(N4CC5CCC(C4)N5)nc(OCC45CCCN4C(c4ccc(-c6ccc(F)cc6)cc4)CC5)nc3c2F)c2c(F)c(F)ccc2c1` (stereo not shown) [Example 190], the AUC under setting [3] came to 939 ng·h/mL. Also, the Cmax under setting [4] stood at 66 ng/mL.
`Nc1ccc(OC(F)(F)F)c(-c2ncc3c(N4CC5CCC(C4)N5)nc(OC[C@]45CCCN4C(c4ccc6c(c4)OC(F)(F)O6)CC5)nc3c2F)c1` (stereo partly drawn) [Example 163, 3-(4-((1R,5S)-3,8-diazabicyclo[3.2.1]octan-3-yl)-2-((3-(2,2-difluorobenzo[d][1,3]dioxy-5-yl)tetrahydro-1H-pyrrolizin-7a(5H)-yl)methoxy)-8-fluoropyridin[4,3d]pyrimidin-7-yl)-4-(trifluoromethoxy)]: under setting [3], the AUC is 2750 ng·h/mL. Besides, under setting [4], the Cmax came to 388 ng/mL.
For `Oc1cc(-c2ncc3c(N4C[C@H]5CC[C@@H](C4)N5)nc(OCC45CCC(c6ccc(OC(F)(F)F)cc6)N4CC4(CC4)C5)nc3c2F)c2ccccc2c1` (stereo partly drawn) [Example 143, 4-(4-((1R,5S)-3,8-diazabicyclo[3.2.1]octan-3-yl)-8-fluoro-2-((5′-(4-(trifluoromethoxy)phenyl)dihydro-1′H,3′H-spiro[cyclopropan-1,2′-pyrrolizin]-7a′(5′H)-yl)methoxy]pyrido[4,3d]pyrimidin-7-yl)naphthalen-2-ol], where the note is “10 mg/kg”, the AUC amounted to 410 ng·h/mL and the Cmax was found to be 32 ng/mL.
Consider `Oc1cc(-c2ncc3c(N4CC5CCC(C4)N5)nc(OCC45CCCN4C(c4ccc6occc6c4)CC5)nc3c2F)c2ccccc2c1` (stereo not shown) [Example 131], for which the AUC under setting [1] worked out at 57 ng·h/mL. For the same molecule, the Cmax under setting [2] is 13 ng/mL.
Under “100 mg/kg”, `Oc1cc(-c2ncc3c(N4C[C@H]5CC[C@@H](C4)N5)nc(OCC45CCCN4C(c4ccc6c(c4)OC(F)(F)O6)CC5)nc3c2F)c2c(F)c(F)ccc2c1` (stereo partly drawn) [Example 140, 4-(4-((1R,5S)-3,8-diazabicyclo[3.2.1]octan-3-yl)-2-((3-(2,2-difluorobenzo[d][1,3]dioxy-5-yl)tetrahydro-1H-pyrrolizin-7a(5H)-yl)methoxy)-8-fluoropyridin[4,3d]pyrimidin-7-yl)-5,6-difluoronaphthalen-2-ol] showed an AUC of 444 ng·h/mL and a Cmax of 113 ng/mL.
Take `Oc1cc(-c2ncc3c(N4CC5CCC(C4)N5)nc(OCC45CCCN4C(c4ccc(C(F)(F)F)cc4)CC5)nc3c2F)c2ccccc2c1` (stereo not shown) [Example 170]: the AUC under setting [1] is 533 ng·h/mL. Also, under setting [2], the maximum concentration (Cmax) stood at 39 ng/mL.

The values above are taken from patent US20250206759A1, “FUSED RING COMPOUND, PHARMACEUTICAL COMPOSITION CONTAINING SAME, AND USE OF FUSED RING COMPOUND” (CHENGDU HYPERWAY PHARMACEUTICALS CO., LTD., priority 2022, published 2025).
